The experiment concerns CEM cells HIV-1 protection, formazan growth assay. Nature of the experiment: NCI AIDS Antiviral Assay. As to conditions: for IC50: measured here: growth of uninfected CEM cells. In outline:
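Screen of anti-HIV-1 activity in human CEM cells using a formazan-based growth measurement at five drug concentrations. Hits with 50% or greater protection were repeated, and confirmation required reproducible complete protection.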

From PubChem BioAssay AID179 (DTP/NCI, 2004) come the findings set out here.

Activity calls are given as the source filed them.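 How the source made its calls: active means compounds giving half or more protection of infected cells from virus-caused growth loss, again on retest; inactive means the rest.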

As a reminder, the EC50 is the midpoint of the concentration-response curve. By IC50 is commonly meant the concentration needed to halve the response being measured. Lower therefore signals inhibition by little substance. For the compound `Cc1cc(C)c(C2[C@H]3C(=O)N(c4ccc(Cc5ccc(N6C(=O)[C@@H]7ON(c8ccccc8)C(c8c(C)cc(C)cc8C)[C@@H]7C6=O)cc5)cc4)C(=O)[C@H]3ON2c2ccccc2)c(C)c1` (some centres undefined), the EC50 is more than 22.4 µM and the IC50 was more than 22.4 µM.

On to `O=C(Nc1cccc2ccccc12)Oc1ccccc1C1CCCCC1`, for which the outcome was inactive.

With `COC(=O)[C@@H]1c2cc3c(c(O)c2[C@@H](OC2OC(C)C(OC)C(C)(OC)C2OC)C[C@]1(C)O)C(=O)c1c(O)cc2c(c1C3=O)O[C@H]1O[C@]2(C)[C@H](O)[C@@H](N(C)C)[C@@H]1O` (some centres undefined), the outcome was inactive.

Take `Cc1ccc(S(=O)(=O)n2cncc2CO)cc1`: the EC50 was more than 200 µM and the IC50 is more than 200 µM.

As to `O=C1NC(=O)C(CC(C(=O)C(=O)Nc2ccccc2Cl)C(=O)c2ccc3ccccc3c2)C(=O)N1` (centres undefined), the EC50 is more than 38 µM and the IC50 is more than 38 µM.

Consider `O=C1NS(=O)(=O)C2C(Cl)=C(Cl)C3(Cl)C2C13Cl` (centres undefined), for which the EC50 was more than 776 µM and the IC50 was more than 776 µM.

On to `Cc1ccccc1N=CN(C)C`, for which the EC50 is more than 200 µM and the IC50 amounted to 42.7 µM.

As for `CCC1(C)N=C(C(N)=O)c2ncn(N=C(C)C)c2N1` (centres undefined), the EC50 is more than 200 µM and the IC50 is more than 200 µM.

On to `COc1c(O)cc2c(c1O)C(=O)C1=C(CCCC1)C2=O`, for which the EC50 is more than 97.7 µM and the IC50 turned out to be 12.3 µM.

For the compound `CN1C(=O)C(Br)SC1=S` (centres undefined), the EC50 is more than 31.6 µM and the IC50 was more than 31.6 µM.

As for `C[C@@]1(O)C2C3CC4C5C3C1[C@](O)(C42)[C@H]5Br` (some centres undefined), the result was inactive.

Take `CC(C)(C)N1C(=O)[N+]2(CCCCC2)N=C1[O-]`: the EC50 is more than 4.47 µM and the IC50 was more than 4.47 µM.

`CC(=O)OC(=C(C#N)C#N)c1nccnc1C(C)=O`: the EC50 was more than 200 µM and the IC50 is 11.2 µM.

For `COc1cc(CC2C(=O)OCC2[C@@H](OC(C)=O)c2ccc3c(c2)OCO3)c(Br)c(OC)c1OC` (some centres undefined), the EC50 was more than 50.1 µM and the IC50 is 43.7 µM.

Regarding `O=C(N/N=C/c1c(-c2ccccc2)no[n+]1[O-])N1CCOCC1`, the EC50 was more than 100 µM and the IC50 is more than 100 µM.

Take `CCCN1C(=O)c2cc(=O)n(Cc3ccccc3)c(O)c2C1C` (centres undefined): the EC50 is more than 115 µM and the IC50 was more than 115 µM.

Turning to `Cc1ccc(S(=O)(=O)NC(C)C(=O)O)cc1` (centres undefined), the outcome was inactive.

On to `COc1cccc(N2CCc3c(C)c(C#N)c4nc5ccccc5n4c32)c1`, for which the EC50 is more than 100 µM and the IC50 is more than 100 µM.

In the case of `CCCCCCOc1ccc(C(=O)NO)cc1`, the EC50 was more than 200 µM and the IC50 stood at 13.2 µM.

Turning to `Cc1ccc(-n2nnc3c(NNc4ccccc4)n[nH]c(=O)c32)cc1`, the EC50 was more than 200 µM and the IC50 came to 25.7 µM.

Consider `COc1ccc(C2=C(Cl)c3cc(OC)c(OC)cc3C2Cl)cc1` (centres undefined), for which the outcome was inactive.

In the case of `COc1cc2c(c(Oc3ccc(C)cc3)c1)CN(C)CC2`, the EC50 was more than 200 µM and the IC50 was 75.9 µM.

On to `CC1=C(C)C2(C#N)CC(=O)N=C2O1` (centres undefined), for which the EC50 is more than 200 µM and the IC50 is more than 200 µM.

As to `CC(C)(C)NC(=O)N1N=C(c2ccccc2)C1c1ccccc1` (centres undefined), the EC50 is more than 200 µM and the IC50 came to 26.9 µM.

For the compound `CC(C)(C)NP(=O)(NC(C)(C)C)NC(C)(C)C`, the EC50 is more than 200 µM and the 50% inhibitory concentration (IC50) turned out to be 107 µM.

Regarding `N=C(N)SCc1ccc2c(c1)S(=O)(=O)c1ccccc1O2`, the EC50 was more than 200 µM and the IC50 was 13.2 µM.

As to `CCCCCCCCCCCCCCCCCCSCC12c3ccccc3C(c3ccccc31)C(COS(=O)(=O)O)C2COS(=O)(=O)O` (centres undefined), the EC50 is more than 100 µM and the IC50 came out at 64.6 µM.

On to `CC(=O)OCC1OC(n2c(=S)[nH]c(-c3ccccc3)c(C#N)c2=O)C(OC(C)=O)C(OC(C)=O)C1OC(C)=O` (centres undefined), for which the EC50 was more than 200 µM and the IC50 is 170 µM.

Consider `CC(=O)Nc1c(I)c(C(=O)O)c(I)c(N(C)C(C)=O)c1I`, for which the EC50 is more than 200 µM and the IC50 was more than 200 µM.

Consider `O=C1O[C@H](C(Cl)(Cl)Cl)N2CCCC12` (some centres undefined), for which the EC50 is more than 204 µM and the IC50 was more than 204 µM.

As to `O=C1C=C(O)c2ccccc2C1=O`, the EC50 was more than 200 µM and the IC50 turned out to be 120 µM.

In the case of `O=C1CSCc2sccc21`, the EC50 is more than 200 µM and the IC50 was more than 200 µM.

Consider `CCOC(=O)/C(C1=N[C@H](C(=O)OCC)CS1)=C(\C)O`, for which the EC50 was more than 631 µM and the IC50 was more than 631 µM.

As for `c1ccc(C2C3=C(Nc4ncnn42)c2ccccc2C3)cc1` (centres undefined), the EC50 is more than 12.6 µM and the IC50 worked out at 7.24 µM.

In the case of `Cn1c2ccccc2n2c(=O)c(-c3ccc(O)cc3)nnc12`, the EC50 was more than 200 µM and the IC50 is more than 200 µM.

For `COc1ccc(C2C(C)C(=O)C(C)C(c3ccc(OC)cc3)N2N=O)cc1` (centres undefined), the EC50 is more than 19.5 µM and the IC50 was more than 19.5 µM.

Consider `COC(=O)C1CC2C=CC=CC(=O)C2(C)C1` (centres undefined), for which the EC50 is more than 251 µM and the IC50 turned out to be 33.1 µM.

With `S=c1ncc2c([nH]1)C1c3ccccc3C2c2ccccc21`, the EC50 was more than 200 µM and the IC50 worked out at 120 µM.

In the case of `O=S(=O)(F)c1ccc(C[P+](c2ccccc2)(c2ccccc2)c2ccccc2)c(Cl)c1`, the EC50 was more than 200 µM and the IC50 turned out to be 45.7 µM.

As for `NC(CSC(c1ccccc1)(c1ccccc1)c1ccccc1)C(=O)O` (centres undefined), the EC50 is more than 49 µM and the IC50 was 0.813 µM.

As to `CC1NC(=O)CC(c2ccccc2)N(N=O)C1c1ccccc1` (centres undefined), the outcome was inactive.

`CCO[C@@H]1C2C=CC(C2)[C@H]1[N+](=O)[O-]` (some centres undefined): the EC50 was more than 141 µM and the IC50 was more than 141 µM.

On to `C=C1C2CC[C@@H]3C(C2)(C(=O)C(O)[C@@H]2C(C)(C)[C@@H]4CC(=O)C32CO4)C1OC(C)=O` (some centres undefined), for which the EC50 is more than 646 µM and the IC50 came to 8.13 µM.

Turning to `COc1c(CC(C)=O)ccc2c1C(=O)c1ccc(C=O)c(OC(C)=O)c1C2=O`, the outcome was inactive.

Turning to `Cc1cc2c(c(C(=O)NCC(=O)O)c1)Oc1c(cc(C)cc1C(=O)NCC(=O)O)S2`, the EC50 is more than 200 µM and the IC50 was more than 200 µM.

Take `CC1(Cn2ccc(=O)[nH]c2=O)CC(C2(C)OCCO2)C(=O)O1` (centres undefined): the EC50 is more than 813 µM and the IC50 is more than 813 µM.

On to `CN1CC(C)(C)C(=O)c2ccccc21`, for which the EC50 is more than 200 µM and the IC50 is more than 200 µM.

For `CN(C)C(CN)CC1=C(CC(CN)N(C)C)CCC1` (centres undefined), the result was inactive.

For the compound `OC[C@@H]1C[C@H](F)[C@H](n2cnc3c(Cl)ncnc32)O1`, the EC50 was more than 575 µM and the IC50 turned out to be 26.3 µM.

For the compound `Cc1ccc2nc3n(c2c1)C(c1c(F)cccc1F)SC3` (centres undefined), the EC50 is 26.9 µM and the IC50 was determined as 45.7 µM.

As for `CCCCCC1CC=CC(NC(=O)OCc2ccccc2)C1/C=C/C(=O)CCCCCOC(=O)c1ccc(Br)cc1` (centres undefined), the outcome was inactive.

For the compound `Cc1cccc2c(=O)c3cccc([C@H](C)C(=O)O)c3oc12`, the EC50 is more than 200 µM and the IC50 is more than 200 µM.

Regarding `COc1ccc(-c2cnoc2-c2ccc(OC)c(OC)c2)cc1OC`, the EC50 was more than 55 µM and the IC50 was found to be 0.355 µM.

`O=c1c2ccc(Cl)cc2oc2ccc(Cl)cc12`: the EC50 is more than 26.9 µM and the IC50 is more than 26.9 µM.
